Results taken from paper PMC12030062, “From In Vitro Cytotoxicity to In Vivo Zebrafish Assays: A Study on 3,3-Dichloro β-, γ- and δ-Lactams and Their Biological Activity Profiles” (Pharmaceuticals, 2025).
In brackets after ≈: the same amount, converted by molar mass.

Tested on: A431 cell line (squamous cell carcinoma)
Test: Cell viability, MTT assay, A431
Assay type: cell-based
Method: Two different endpoints, 3-(4,5-dimethyl-2-thiazolyl)-2,5-diphenyltetrazolium bromide (MTT) and neutral red uptake (NRU), were used to assess differences in cell-induced cytotoxicity. […] In addition, NRU evaluates the interaction of these drugs with the plasmatic membrane. Cell responses were determined from the MTT [16] and NRU [17] assays, using the two proposed cell lines. Cytotoxicity assays were performed at concentrations equal to 80 and 250 µg/mL. The IC50 value, referring to the half-maximal inhibitory concentration, was determined as a key parameter in cytotoxicity studies (Table 1). It plays a crucial role in evaluating cell viability and assessing cellular responses to various drugs or toxins. For cases where IC50 values were below 80 µg/mL, additional studies at lower concentrations were conducted to accurately determine these values. […] The selectivity index (SI), used as a measurement of action against the tumor cell line in comparison with a normal cell line, was also included.
• In Vitro Assay Using Human Erythrocytes • - Acquisition and Extraction of the Erythrocytes Human blood samples were obtained from the Banc de Sang i Teixits de Barcelona (Spain) from the Catalan Department of Health. Blood was deposited in tubes with the anticoagulant EDTA-K3. Blood samples were centrifuged at 3000 rpm and 4 °C for 10 min (Megafuge 2.0 R. Heraeus Instruments, Hanau, Germany) to induce sedimentation. Plasma was extracted with a Pasteur pipette. Next, the residual pellet was washed with PBS at pH 7.4. This procedure was repeated three times to remove residual leukocytes and platelets and to concentrate the erythrocytes. Following the last wash, the erythrocyte suspension was diluted (1:1) in PBS at pH 7.4 to obtain a suitable erythrocyte suspension (cell density of 8 × 10^9 cell/mL). • - Hemolysis Assay The hemolysis assay determined the capability of different compounds to induce the hemolysis of the erythrocyte membrane. Stock solutions of each compound at 1 mg/mL in PBS at pH 7.4 were prepared. Different volumes (10–80 μL) were placed in polystyrene tubes, and an aliquot of 25 µL of the erythrocyte suspensions was added to each tube. The final volume was 1 mL. The tubes were incubated at room temperature under rotatory conditions. Then, the tubes were centrifuged at 10,000 rpm for 5 min. The supernatants’ absorbance at 540 nm (Shimadzu UV-160A, Shimadzu, Duisburg, Germany) was compared with that of the positive (erythrocytes hemolyzed with distilled water) and negative (erythrocyte suspension in PBS at pH 7.4) controls. The degree of hemolysis was determined using the following equation: Hemolysis (%) = 100 × (Abs − Abs0)/(Abs100 − Abs0) where Abs, Abs0, and Abs100 are the absorbance of the test samples, of the suspension treated with isotonic phosphate–buffered saline (PBS), and of the suspension of complete hemolysis treated with distilled water, respectively. • In Vitro Essay Using Cell Cultures The murine Swiss albino fibroblasts (3T3) and the squamous cell carcinoma (A431) cell lines were obtained from Celltec UB. Cells were grown in DMEM medium (4.5 g/L glucose) supplemented with 10% (v/v) FBS, 2 mM L-glutamine, 100 U/mL penicillin, and 100 µg/mL streptomycin at 37 °C with 5% CO2. Cells were routinely cultured in 75 cm^2 culture flasks and were trypsinized using trypsin–EDTA when the cells reached approximately 80% confluence. The trypan blue assay, which allows for the direct identification and enumeration of the live (unstained) and dead (blue) cells in the cell population, was used to evaluate the viability of the cells in the cell suspension obtained. • - Cell Viability Assays Cell lines of 3T3 (1 × 10^5 cells/mL) and A431 (5 × 10^4 cells/mL) were grown at defined densities in the 60 central wells of a 96-well plate. The cells were incubated for 24 h in 5% CO2 at 37 °C. […]

CC(C)(C)N1C(=O)C(Cl)(Cl)C1c1ccccc1 (stereo not shown) [Compound 1]
IC50 (MTT) A431 (24 h incubation, MTT endpoint, A431): 71.65 ± 1.23 µg/mL (≈ 263 µM)
IC50 (Homo sapiens, A-431, 24 h, 24 h incubation, MTT endpoint, A431, read-out: IC50 (MTT) A431): 71 µg/mL (≈ 261 µM)
SI (MTT), selectivity index (SI = IC50 (3T3)/IC50 (A431), MTT): 2.94
selective cytotoxicity, A431 in comparison with 3T3 cells (lower IC50 for A431 than 3T3): some selective cytotoxicity
